US10544147B2, “Purine inhibitors of human phosphatidylinositol 3-kinase delta” (MERCK SHARP & DOHME CORP., priority 2016, dated 2020)

What was measured:
[1] = target: PI3Kdelta (Homo sapiens (Human), UniProt O00329); experiment: HTRF PI3K biochemical assay, delta isoform; settings: 0.3 nM enzyme, 100 uM ATP, 50 uM PIP2; form screened (neutral or TFA salt)
[2] = target: PI3Kalpha (Homo sapiens (Human), UniProt P42336); experiment: HTRF PI3K biochemical assay, alpha isoform (selectivity versus delta); settings: ratio PI3K-alpha IC50 value/PI3K-delta IC50 value
Sequence of PI3Kalpha (P42336 whole entry, canonical isoform): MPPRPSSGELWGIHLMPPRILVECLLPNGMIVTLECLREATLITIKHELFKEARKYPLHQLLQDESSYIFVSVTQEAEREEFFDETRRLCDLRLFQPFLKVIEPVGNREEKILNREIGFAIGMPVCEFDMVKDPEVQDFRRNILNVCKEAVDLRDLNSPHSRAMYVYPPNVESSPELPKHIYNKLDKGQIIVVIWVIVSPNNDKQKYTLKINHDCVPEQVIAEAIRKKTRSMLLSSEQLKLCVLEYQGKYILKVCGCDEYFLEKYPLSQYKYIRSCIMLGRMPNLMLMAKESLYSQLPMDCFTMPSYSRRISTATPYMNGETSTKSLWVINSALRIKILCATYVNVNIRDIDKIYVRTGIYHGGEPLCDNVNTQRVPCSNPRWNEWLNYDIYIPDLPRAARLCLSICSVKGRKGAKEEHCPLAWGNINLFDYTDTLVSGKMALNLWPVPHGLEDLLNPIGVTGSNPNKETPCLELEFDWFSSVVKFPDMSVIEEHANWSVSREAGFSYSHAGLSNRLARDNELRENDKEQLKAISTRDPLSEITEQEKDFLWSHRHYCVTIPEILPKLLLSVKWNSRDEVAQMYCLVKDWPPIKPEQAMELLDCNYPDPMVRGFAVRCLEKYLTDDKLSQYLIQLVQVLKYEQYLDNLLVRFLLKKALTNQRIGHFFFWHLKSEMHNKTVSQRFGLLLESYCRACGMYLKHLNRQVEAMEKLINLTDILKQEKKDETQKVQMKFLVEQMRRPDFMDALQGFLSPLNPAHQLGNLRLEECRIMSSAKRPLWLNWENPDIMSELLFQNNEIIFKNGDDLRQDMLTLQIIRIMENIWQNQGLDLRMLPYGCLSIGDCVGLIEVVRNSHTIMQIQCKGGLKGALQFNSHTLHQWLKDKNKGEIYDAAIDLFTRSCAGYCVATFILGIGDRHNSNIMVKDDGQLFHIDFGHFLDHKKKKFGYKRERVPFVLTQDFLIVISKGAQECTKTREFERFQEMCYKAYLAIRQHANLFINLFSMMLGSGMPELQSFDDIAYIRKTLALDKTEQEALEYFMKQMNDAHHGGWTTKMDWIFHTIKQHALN
Sequence of PI3Kalpha (P27986 whole entry partner, canonical isoform): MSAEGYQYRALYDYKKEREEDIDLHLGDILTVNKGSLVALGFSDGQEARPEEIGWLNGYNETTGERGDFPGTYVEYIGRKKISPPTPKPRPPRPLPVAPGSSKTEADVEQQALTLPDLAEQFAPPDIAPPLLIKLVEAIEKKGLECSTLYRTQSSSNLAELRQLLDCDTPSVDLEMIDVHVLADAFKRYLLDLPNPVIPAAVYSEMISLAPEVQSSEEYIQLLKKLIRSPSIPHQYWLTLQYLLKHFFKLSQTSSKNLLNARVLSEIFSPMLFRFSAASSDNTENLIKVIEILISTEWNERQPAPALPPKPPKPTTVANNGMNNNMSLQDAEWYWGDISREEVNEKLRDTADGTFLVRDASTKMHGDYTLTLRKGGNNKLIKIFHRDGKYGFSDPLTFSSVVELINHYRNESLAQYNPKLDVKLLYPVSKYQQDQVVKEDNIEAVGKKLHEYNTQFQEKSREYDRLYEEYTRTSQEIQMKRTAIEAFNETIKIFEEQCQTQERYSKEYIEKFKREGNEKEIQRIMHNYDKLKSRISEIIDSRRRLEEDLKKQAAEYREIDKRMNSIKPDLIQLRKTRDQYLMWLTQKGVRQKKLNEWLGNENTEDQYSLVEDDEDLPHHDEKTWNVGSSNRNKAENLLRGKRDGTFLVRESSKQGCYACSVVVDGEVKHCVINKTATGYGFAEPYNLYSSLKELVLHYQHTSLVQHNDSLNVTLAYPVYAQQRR

Sequence of PI3Kdelta (O00329 whole entry, canonical isoform): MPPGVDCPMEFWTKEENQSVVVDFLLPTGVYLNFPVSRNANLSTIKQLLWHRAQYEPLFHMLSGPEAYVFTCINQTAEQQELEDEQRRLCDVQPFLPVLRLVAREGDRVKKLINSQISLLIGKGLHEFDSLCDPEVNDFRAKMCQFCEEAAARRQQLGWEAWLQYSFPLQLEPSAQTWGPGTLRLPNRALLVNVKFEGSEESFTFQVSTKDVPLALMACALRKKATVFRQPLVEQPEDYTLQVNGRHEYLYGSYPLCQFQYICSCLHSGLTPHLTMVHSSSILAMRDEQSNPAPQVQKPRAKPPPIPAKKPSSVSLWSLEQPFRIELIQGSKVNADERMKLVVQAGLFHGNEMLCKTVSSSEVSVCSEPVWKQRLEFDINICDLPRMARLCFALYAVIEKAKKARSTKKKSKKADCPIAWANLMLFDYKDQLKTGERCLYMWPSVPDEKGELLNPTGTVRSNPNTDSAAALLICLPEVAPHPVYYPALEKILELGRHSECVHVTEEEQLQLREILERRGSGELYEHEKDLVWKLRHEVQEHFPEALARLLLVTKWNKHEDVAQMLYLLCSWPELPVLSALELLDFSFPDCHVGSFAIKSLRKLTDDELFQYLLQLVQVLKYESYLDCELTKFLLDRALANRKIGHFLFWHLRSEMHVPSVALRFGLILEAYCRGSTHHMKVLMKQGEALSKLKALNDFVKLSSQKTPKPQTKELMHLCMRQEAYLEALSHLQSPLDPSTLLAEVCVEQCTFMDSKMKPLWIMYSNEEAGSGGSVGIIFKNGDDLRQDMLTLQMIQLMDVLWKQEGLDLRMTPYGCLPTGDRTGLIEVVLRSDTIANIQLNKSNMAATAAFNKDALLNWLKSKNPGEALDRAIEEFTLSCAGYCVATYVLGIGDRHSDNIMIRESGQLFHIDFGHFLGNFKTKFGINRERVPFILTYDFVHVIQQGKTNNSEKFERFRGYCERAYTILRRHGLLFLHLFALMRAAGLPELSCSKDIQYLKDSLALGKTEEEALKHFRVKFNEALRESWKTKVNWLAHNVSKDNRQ
Sequence of PI3Kdelta (P27986 whole entry partner, canonical isoform): as the sequence (P27986 whole entry partner, canonical isoform) above

Row | Structure (SMILES) | IC50 [1] [µM] | Relative Selectivity versus PI3Kalpha [2]
1 | CCn1c(-c2cnc(C)nc2)nc2c(-c3ccc4c(c3)C(C)(N3CC(C)(F)C3)C(=O)N4)ncnc21 (single isomer, unassigned) [Compound 2-63, (R or S)-5-(9-ethyl-8-(2-methylpyrimidin-5-yl)-9H-purin-6-yl)-3-(3-fluoro-3-methylazetidin-1-yl)-3-methylindolin-2-one] | 0.087 | >10
2 | CCn1c(-c2cnc(C)nc2)nc2c(-c3ccc4c(c3)C3(CCCN3S(C)(=O)=O)C(=O)N4)ncnc21 (single isomer, unassigned) [Compound 3-20, (R or S)-5-(9-ethyl-8-(2-methylpyrimidin-5-yl)-9H-purin-6-yl)-1′-(methylsulfonyl)spiro[indoline-3,2′-pyrrolidin]-2-one] | 0.055 | >10
3 | CCn1c(-c2cnc(C)nc2)nc2c(-c3ccc4c(c3)C3(CCN(C(=O)C5CC5)C3)C(=O)N4)ncnc21 (single isomer, unassigned) [Compound 3-5, (R or S)-1′-(cyclopropanecarbonyl)-5-(9-ethyl-8-(2-methylpyrimidin-5-yl)-9H-purin-6-yl)spiro[indoline-3,3′-pyrrolidin]-2-one] | 0.063 | >10
4 | CCn1c(-c2cnc(C)nc2)nc2c(-c3ccc4c(c3)C(C)(N3CC(OC)C3)C(=O)N4)ncnc21 (single isomer, unassigned) [Compound 2-79, (R or S)-5-(9-ethyl-8-(2-methylpyrimidin-5-yl)-9H-purin-6-yl)-3-(3-methoxyazetidin-1-yl)-3-methylindolin-2-one] | 0.015 | >10
5 | CCn1c(-c2cnc(C)nc2)nc2c(-c3ccc4c(c3)C(C)(OCC3CC3)C(=O)N4)ncnc21 (single isomer, unassigned) [Compound 2-57, (R or S)-3-(cyclopropylmethoxy)-5-(9-ethyl-8-(2-methylpyrimidin-5-yl)-9H-purin-6-yl)-3-methylindolin-2-one] | 0.264 | >10
6 | CCn1c(-c2cnc(C)nc2)nc2c(-c3cnc4c(c3)C(C)(N3CC(C)(C#N)C3)C(=O)N4)ncnc21 (single isomer, unassigned) [Compound 2-53, (S or R)-1-(5-(9-ethyl-8-(2-methylpyrimidin-5-yl)-9H-purin-6-yl)-3-methyl-2-oxo-2,3-dihydro-1H-pyrrolo[2,3-b]pyridin-3-yl)-3-methylazetidine-3-carbonitrile] | 0.004 | >10
7 | CCn1c(-c2cnc(C)nc2)nc2c(-c3ccc4c(c3)C(C)(N3C[C@@H](C)O[C@@H](C)C3)C(=O)N4)ncnc21 (single isomer, unassigned) [Compound 2-3, (R or S)-3-[(cis)-2,6-dimethylmorpholin-4-yl]-5-[9-ethyl-8-(2-methylpyrimidin-5-yl)-9H-purin-6-yl]-3-methyl-1,3-dihydro-2H-indol-2-one] | 0.145 | 4
8 | CCn1c(-c2cnc(C)nc2)nc2c(-c3ccc4c(c3)C(C)(NC(C)C)C(=O)N4)ncnc21 (single isomer, unassigned) [Compound 2-31, (R or S)-5-[9-ethyl-8-(2-methylpyrimidin-5-yl)-9H-purin-6-yl]-3-methyl-3-[(1-methylethyl)amino]-1,3-dihydro-2H-indol-2-one] | 0.479 | >10
9 | Cc1ncc(-c2nc3c(-c4cnc5c(c4)C(C)(NCC(C)(C)F)C(=O)N5)ncnc3n2C)cn1 (single isomer, unassigned) [Compound 2-60, (S or R)-5-(9-methyl-8-(2-methylpyrimidin-5-yl)-9H-purin-6-yl)-3-((2-fluoro-2-methylpropyl)amino)-3-methyl-1H-pyrrolo[2,3-b]pyridin-2(3H)-one] | 0.133 | 8
10 | CCn1c(-c2cnc(C)nc2)nc2c(-c3ccc4c(c3)C(C)(NCC3(F)COC3)C(=O)N4)ncnc21 (single isomer, unassigned) [Compound 2-72, (R or S)-5-(9-ethyl-8-(2-methylpyrimidin-5-yl)-9H-purin-6-yl)-3-(((3-fluorooxetan-3-yl)methyl)amino)-3-methylindolin-2-one] | 0.003 | >10
11 | CCn1c(-c2cnc(C)nc2)nc2c(-c3ccc4c(c3)C(C)(N[C@@H](C)C3CC3)C(=O)N4)ncnc21 (single isomer, unassigned) [Compound 2-12, 3-{[(1S)-1-cyclopropylethyl]amino}-5-[9-ethyl-8-(2-methylpyrimidin-5-yl)-9H-purin-6-yl]-3(R or S)-methyl-1,3-dihydro-2H-indol-2-one] | 0.005 | >10
12 | CCn1c(-c2cnc(C)nc2)nc2c(-c3ccc4c(c3)C(C)(NCC3(C#N)CCC3)C(=O)N4)ncnc21 (racemic) [Compound 2-19, (R and S)-1-[({5-[9-ethyl-8-(2-methylpyrimidin-5-yl)-9H-purin-6-yl]-3-methyl-2-oxo-2,3-dihydro-1H-indol-3-yl}amino)methyl]cyclobutane-carbonitrile] | 0.022 | >10
13 | CCn1c(-c2cnc(C)nc2)nc2c(-c3ccc4c(c3)C(C)(NCC3(C)CCC3)C(=O)N4)ncnc21 (racemic) [Compound 2-18, (R and S)-5-[9-ethyl-8-(2-methylpyrimidin-5-yl)-9H-purin-6-yl]-3-methyl-3-{[(1-methylcyclobutyl)methyl]amino}-1,3-dihydro-2H-indol-2-one] | 0.008 | >10
14 | CCn1c(-c2cnc(C)nc2)nc2c(-c3ccc4c(c3)C(C)(N3C[C@@H](F)[C@H](F)C3)C(=O)N4)ncnc21 (single isomer, unassigned) [Compound 2-61, 3-(R or S)-((3R,4R)-3,4-difluoropyrrolidin-1-yl)-5-(9-ethyl-8-(2-methylpyrimidin-5-yl)-9H-purin-6-yl)-3-methylindolin-2-one] | 0.035 | >10
15 | CCn1c(-c2cnc(C)nc2)nc2c(-c3ccc4c(c3)C3(CCN(C(C)C)C3)C(=O)N4)ncnc21 (single isomer, unassigned) [Compound 3-35, (R or S)-5-(9-ethyl-8-(2-methylpyrimidin-5-yl)-9H-purin-6-yl)-1′-isopropylspiro[indoline-3,3′-pyrrolidin]-2-one] | 0.014 | >10
16 | CCn1c(-c2cnc(C)nc2)nc2c(-c3ccc4c(c3)C(C)(CC(C)C)C(=O)N4)ncnc21 (single isomer, unassigned) [Compound 1-1, 5-(9-Ethyl-8-(2-methylpyrimidin-5-yl)-9H-purin-6-yl)-3-isobutyl-3-methylindolin-2-one] | 0.004 | >10
17 | CCn1c(-c2cnc(C)nc2)nc2c(-c3ccc4c(c3)C(C)(N(C)C(C)C)C(=O)N4)ncnc21 (racemic) [Compound 2-15, (R and S)-5-[9-ethyl-8-(2-methylpyrimidin-5-yl)-9H-purin-6-yl]-3-methyl-3-[methyl(1-methylethyl)amino]-1,3-dihydro-2H-indol-2-one] | 0.046 | >10
18 | CCn1c(-c2cnc(C)nc2)nc2c(-c3ccc4c(c3)C3(CCCO3)C(=O)N4)ncnc21 (single isomer, unassigned) [Compound 3-31, (R or S)-5′-(9-ethyl-8-(2-methylpyrimidin-5-yl)-9H-purin-6-yl)-4,5-dihydro-3H-spiro[furan-2,3′-indolin]-2′-one] | 0.099 | >10
19 | CCn1c(-c2cnc(C)nc2)nc2c(-c3ccc4c(c3)C(C)(CC(C)C)C(=O)N4)ncnc21 (single isomer, unassigned) [Compound 1-2, 5-(9-Ethyl-8-(2-methylpyrimidin-5-yl)-9H-purin-6-yl)-3-isobutyl-3-methylindolin-2-one] | 0.121 | >10
20 | CCn1c(-c2cnc(C)nc2)nc2c(-c3ccc4c(c3)C(C)(NCC3CCC3)C(=O)N4)ncnc21 (racemic) [Compound 2-20, (R and S)-3-[(cyclobutylmethyl)amino]-5-[9-ethyl-8-(2-methylpyrimidin-5-yl)-9H-purin-6-yl]-3-methyl-1,3-dihydro-2H-indol-2-one] | 0.023 | >10
21 | CCn1c(-c2cnc(C)nc2)nc2c(-c3ccc4c(c3)C(C)(NC(C)C)C(=O)N4)ncnc21 (single isomer, unassigned) [Compound 2-32, (R or S)-5-[9-ethyl-8-(2-methylpyrimidin-5-yl)-9H-purin-6-yl]-3-methyl-3-[(1-methylethyl)amino]-1,3-dihydro-2H-indol-2-one] | 0.027 | >10
22 | CCn1c(-c2cnc(C)nc2)nc2c(-c3ccc4c(c3)C(C)(CC3CC3)C(=O)N4C)ncnc21 (single isomer, unassigned) [Compound 1-9, 3-(Cyclopropylmethyl)-5-(9-ethyl-8-(2-methylpyrimidin-5-yl)-9H-purin-6-yl)-1,3-dimethylindolin-2-one] | 0.017 | >10
23 | CCn1c(-c2cnc(C)nc2)nc2c(-c3ccc4c(c3)C(C)(N3CCn5nccc5C3)C(=O)N4)ncnc21 (racemic) [Compound 2-24, (R and S)-3-(6,7-dihydropyrazolo[1,5-a]pyrazin-5(4H)-yl)-5-[9-ethyl-8-(2-methylpyrimidin-5-yl)-9H-purin-6-yl]-3-methyl-1,3-dihydro-2H-indol-2-one] | 0.067 | >10
24 | CCn1c(-c2cnc(C)nc2)nc2c(-c3ccc4c(c3)C(C)(N3CC5(CCOC5)C3)C(=O)N4)ncnc21 (racemic) [Compound 2-28, (R and S)-5-[9-ethyl-8-(2-methylpyrimidin-5-yl)-9H-purin-6-yl]-3-methyl-3-(6-oxa-2-azaspiro[3.4]oct-2-yl)-1,3-dihydro-2H-indol-2-one] | 0.049 | >10
